# Where two headings read alike, the source gives them in different places.
# Tests used:
# [1] = target: T1, menin/MLL (terbium chelate-labeled menin, FITC-MBM1 peptide) (Homo sapiens, UniProt O00255, T541A); assay: Menin/MLL homogenous time-resolved fluorescence (HTRF) assay; assay type: binding; conditions: 30 min incubation
# T1 construct: Menin (a.a 1-610-6xhis tag, 2.3 mg/mL in 20 mM Hepes)
# T1 sequence (O00255 with tags, fused parts or gaps T541A): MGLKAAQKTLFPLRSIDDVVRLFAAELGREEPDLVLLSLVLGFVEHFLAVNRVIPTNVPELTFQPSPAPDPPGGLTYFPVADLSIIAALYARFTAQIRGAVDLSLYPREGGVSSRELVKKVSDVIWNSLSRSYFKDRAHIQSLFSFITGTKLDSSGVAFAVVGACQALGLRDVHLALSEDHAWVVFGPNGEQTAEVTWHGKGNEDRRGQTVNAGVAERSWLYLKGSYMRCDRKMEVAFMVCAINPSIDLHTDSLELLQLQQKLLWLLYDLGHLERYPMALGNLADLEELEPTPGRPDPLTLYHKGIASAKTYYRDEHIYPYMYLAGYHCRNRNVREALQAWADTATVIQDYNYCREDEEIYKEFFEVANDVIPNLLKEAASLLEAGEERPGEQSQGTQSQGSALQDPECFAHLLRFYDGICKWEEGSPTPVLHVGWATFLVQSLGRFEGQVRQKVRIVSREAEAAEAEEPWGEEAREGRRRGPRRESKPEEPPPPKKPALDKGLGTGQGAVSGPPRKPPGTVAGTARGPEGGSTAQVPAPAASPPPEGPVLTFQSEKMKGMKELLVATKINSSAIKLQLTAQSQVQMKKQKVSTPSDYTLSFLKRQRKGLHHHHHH
# Method in brief: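 Terbium-labeled menin (a.a. 1-610, His-tagged; […]) pre-incubated 30 min with compound, then 75 nM FITC-MBM1 peptide added for 15 min at ambient temperature in Tris pH 7.5 buffer, 0.5% DMSO. HTRF 520/490 nm ratio read; IC50 from 11-point four-fold titrations, typically from 10 μM.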
# [2] = tested on: MOLM14 cells; assay: Proliferation assay (spheroid confluence, 8 days), MOLM14; assay type: cell-based, human; conditions: read-out: spheroid assay_MOLM14 IC50
# Description: The anti-proliferative effect of menin/MLL protein/protein interaction inhibitor test compounds was assessed in human leukemia cell lines. The cell line MOLM14 harbors a MLL translocation and expresses the MLL fusion protein MLL-AF9, respectively, as well as the wildtype protein from the second allele. OCI-AML3 cells that carry the NPM1c gene mutation were also tested. […] KO-52 was used as a control cell line containing two MLL (KMT2A) wildtype alleles in order to exclude compounds that display general cytotoxic effects.
# MOLM14 cells were cultured in RPMI-1640 (Sigma Aldrich) supplemented with 10% heat-inactivated fetal bovine serum (HyClone), 2 mM L-glutamine (Sigma Aldrich) and 50 μg/ml gentamycin (Gibco). KO-52 and OCI-AML3 cell lines were propagated in alpha-MEM (Sigma Aldrich) supplemented with 20% heat-inactivated fetal bovine serum (HyClone), 2 mM L-glutamine (Sigma Aldrich) and 50 μg/ml gentamycin (Gibco).
# In order to assess the anti-proliferative effects, 200 MOLM14 cells, 200 OCI-AML3 cells or 300 KO-52 cells were seeded in 200 μl media per well in 96-well round bottom, ultra-low attachment plates (Costar, catalogue number 7007). Cell seeding numbers were chosen based on growth curves to ensure linear growth throughout the experiment. Test compounds were added at different concentrations and the DMSO content was normalized to 0.3%. Cells were incubated for 8 days at 37° C. and 5% CO2. Spheroid like growth was measured in real-time by live-cell imaging (IncuCyteZOOM, Essenbio, 4×objective) acquiring images at day 8. Confluence (%) as a measure of spheroid size was determined using an integrated analysis tool.
# In order to determine the effect of the test compounds over time, the confluence in each well as a measure of spheroid size, was calculated. Confluence of the highest dose of a reference compound was used as baseline for the LC (Low control) and the confluence of DMSO treated cells was used as 0% cytotoxicity (High Control, HC).
# Absolute IC50 values were calculated as percent change in confluence as follows:
# LC=Low Control: cells treated with e.g. 1 μM of the cytotoxic agent staurosporin, or e.g. cells treated with a high concentration of an alternative reference compound
# HC=High Control: Mean confluence (%) (DMSO treated cells)
# % Effect=100−(100*(Sample−LC)/(HC−LC))
# GraphPad Prism (version 7.00) was used to calculate the IC50. Dose-response equation was used for the plot of % Effect vs Log10 compound concentration with a variable slope and fixing the maximum to 100% and the minimum to 0%.
# [3] = tested on: MEIS1 mRNA expression; assay: MEIS1 mRNA expression assay (Quantigene Singleplex) in MOLM14 cells; assay type: cell-based, human; conditions: 48 hours incubation
# Method in brief: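 MOLM14 cells, 3,750/well, exposed to increasing compound concentrations for 48 h. MEIS1 mRNA measured by QuantiGene Singleplex branched-DNA hybridization (lysis 45 min, hybridization 18–22 h, both 55 °C), normalized to RPL28. IC50 fitted to background-corrected fold change versus DMSO.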
Compound,IC50 [1] [nM],"IC50 ([2]; Homo sapiens, MOLM-14, MOLM14) [nM]","IC50 ([3]; Homo sapiens, MOLM-14, 48 h) [nM]",IC50 ([2]; MOLM14) [nM],IC50 [3] [nM]
Cc1cncc2c1c(C[C@H]1CCN(CC3CCC(=O)NC3)C1)cn2-c1ccc(F)cc1C(=O)N(C)C(C)C (mixture of isomers) [Compound 88],0.093,96,140,,
Cc1cncc2c1c(C[C@@H]1CCN(CC3CCN(C)C(=O)C3)C1)cn2-c1ccc(F)cc1C(=O)N(C)C(C)C (mixture of isomers) [Compound 171],0.581,337,> 1000,,
"CC(=O)N1CCC(C)(CN2CC[C@H](Cc3cn(-c4ccc(F)cc4C(=O)N(C)C(C)C)c4cncc(C)c34)C2)CC1 (single isomer, unassigned) [Compound 122]",0.05,12,18,,
"Cc1cncc2c1c(CC1CCN(CC3(C)CCN(C(=O)CO)CC3)C1)cn2-c1ccc(F)cc1C(=O)N(C)C(C)C (single isomer, unassigned) [Compound 123]",0.052,16,31,,
"Cc1cncc2c1c(CC1CCN(CC3CCN(C(=O)C(C)(C)C#N)CC3)C1)cn2-c1ccc(F)cc1C(=O)N(C)C(C)C (single isomer, unassigned) [Compound 126]",0.091,18,32,,
"CC(=O)N1CCC([C@@H](C)N2CC(Cc3cn(-c4ccc(F)cc4C(=O)N(C)C(C)C)c4cncc(C)c34)C2)CC1 (single isomer, unassigned) [Compound 150]",0.43,1470,> 1000,,
"CNC(=O)[C@H]1CC[C@H]([C@@H](C)N2CC(Cc3cn(-c4ccc(F)cc4C(=O)N(C)C(C)C)c4cncc(C)c34)C2)CC1 (single isomer, unassigned) [Compound 162]",0.505,424,> 1000,,
"CNC(=O)[C@H]1CC[C@H]([C@H](C)N2CC(Cc3cn(-c4ccc(F)cc4C(=O)N(C)C(C)C)c4cncc(C)c34)C2)CC1 (single isomer, unassigned) [Compound 163]",0.192,456,~623,,
"CC(=O)N1CC([C@@H](C)N2CC[C@@H](Cc3cn(-c4ccc(F)cc4C(=O)N(C)C(C)C)c4cncc(C)c34)C2)C1 (single isomer, unassigned) [Compound 175]",1.33,234,~1050,,
"CC(=O)N1CC([C@H](C)N2CC[C@@H](Cc3cn(-c4ccc(F)cc4C(=O)N(C)C(C)C)c4cncc(C)c34)C2)C1 (single isomer, unassigned) [Compound 176]",0.2,46,306,,
CC(=O)N1CCC(CN2CC[C@@H](Cc3cn(-c4ccc(F)cc4C(=O)N(C)C(C)C)c4cncc(C)c34)C2)CC1 [Compound 51],0.042,8,,,
Cc1cncc2c1c(C[C@@H]1CN[C@H](C)C1)cn2-c1ccc(F)cc1C(=O)N(C)C(C)C [Compound 504],23.9,,> 1000,,

# Results, then the compound that gave them:
IC50 [1] [nM],"IC50 ([2]; Homo sapiens, MOLM-14, MOLM14) [nM]","IC50 ([3]; Homo sapiens, MOLM-14, 48 h) [nM]",IC50 ([2]; MOLM14) [nM],IC50 [3] [nM],Compound
0.227,113,221,,,"Cc1cncc2c1c(C[C@H]1CCN([C@H](C)C3CCOCC3)C1)cn2-c1ccc(F)cc1C(=O)N(C)C(C)C (single isomer, unassigned) [Compound 49a]"
0.105,,,117,206,"CN=S(=O)(c1cc(F)ccc1-n1cc(CC2CCN(CC3CCOCC3)C2)c2c(C)cncc21)C(C)C (single isomer, unassigned) [Compound 77a]"
0.382,200,416,,,"Cc1cncc2c1c(C[C@@H]1CCN(CC3CCOCC3)C1)cn2-c1ccc(F)cc1[S@@](=N)(=O)C(C)C (single isomer, unassigned) [Compound 78c]"
0.27,,,300,411,"COCC(=O)N1CCC(C(C)N2CCC(Cc3cn(-c4ccc(F)cc4C(=O)N(C)C(C)C)c4cncc(C)c34)C2)CC1 (single isomer, unassigned) [Compound 117b]"
0.045,40,65,,,"CN=[S@](=O)(c1cc(F)ccc1-n1cc(C[C@H]2CCN(CC3CCN(C(C)=O)CC3)C2)c2c(C)cncc21)C(C)C (single isomer, unassigned) [Compound 128b]"
0.104,89,419,,,"CN=[S@@](=O)(c1cc(F)ccc1-n1cc(C[C@H]2CCN(CC3CCN(C(C)=O)CC3)C2)c2c(C)cncc21)C(C)C (single isomer, unassigned) [Compound 128d]"
0.082,10,52,,,"Cc1cncc2c1c(C[C@@H]1CCN(C[C@H]3CCCCO3)C1)cn2-c1ccc(F)cc1C(=O)N(C)C(C)C (single isomer, unassigned) [Compound 147a]"
0.209,154,249,,,"CNC(=O)[C@H]1CC[C@H](CN2CC([C@@H](C)c3cn(-c4ccc(F)cc4C(=O)N(C)C(C)C)c4cncc(C)c34)C2)CC1 (single isomer, unassigned) [Compound 164a]"
0.084,49,38,,,"CN=[S@](=O)(c1cc(F)ccc1-n1cc(CC2CN(CC3CCOCC3)C2)c2c(C)cncc21)C(C)C (single isomer, unassigned) [Compound 166a]"
0.226,120,256,,,"CN=[S@@](=O)(c1cc(F)ccc1-n1cc(CC2CN(CC3CCOCC3)C2)c2c(C)cncc21)C(C)C (single isomer, unassigned) [Compound 166b]"
0.19,210,> 1000,,,"Cc1cncc2c1c(CC1CN(CC3CCOCC3)C1)cn2-c1ccc(F)cc1[S@](=N)(=O)C(C)C (single isomer, unassigned) [Compound 167a]"
0.118,99,117,,,"Cc1cncc2c1c(CC1CN(CC3CCOCC3)C1)cn2-c1ccc(F)cc1[S@@](=N)(=O)C(C)C (single isomer, unassigned) [Compound 167b]"
0.061,17,15,,,"Cc1cncc2c1c(C[C@@H]1CCN(C[C@H]3CCNC(=O)CC3)C1)cn2-c1ccc(F)cc1C(=O)N(C)C(C)C (single isomer, unassigned) [Compound 169a]"
0.195,87,~220,,,"Cc1cncc2c1c(C[C@@H]1CCN(C[C@@H]3CCNC(=O)CC3)C1)cn2-c1ccc(F)cc1C(=O)N(C)C(C)C (single isomer, unassigned) [Compound 169b]"
0.067,12,19,,,"Cc1cncc2c1c(C[C@@H]1CCN(CC3CCOCC3)C1)cn2-c1ccc(F)cc1C(=O)N1CCC[C@@]1(C)CO (single isomer, unassigned) [Compound 362b]"
